Read-outs that look alike come from different tables or passages of the source. Where a SMILES comes first, the peptide text is derived from it. [ ]: non-standard residue; d: D form.

The text below walks through data of patent US20250326795A1, “USE OF D-ENANTIOMERIC PEPTIDE LIGANDS OF MONOMERIC TAU FOR THE THERAPY OF VARIOUS TAUOPATHIES” (PRIAVOID GMBH, priority 2021, published 2025).

Series [1] can be described thus: Stability study in different simulated human body fluids. The class given is in vitro ADME. As to conditions: simulated gastric fluid pH 1, simulated intestinal fluid pH 6.8, human blood plasma, human liver microsomes (FIG. 6). The procedure:
Stability study of TF2D-5 and TF2D-5a in different simulated human body fluids. A) Stability of the peptides in simulated gastric fluid (SGF). The simulated gastric fluid consisted of 2 mg/ml sodium chloride, 3.2 mg/ml pepsin and 80 mM HCl; pH 1. B) Stability of TF2D-5 and TF2D-5a in simulated intestinal fluid (SIF). Simulated intestinal fluid consisted of 6.8 mg/ml potassium dihydrogen phosphate, 10 mg/ml pancreatic powder and 15.4 mM NaOH; pH 6.8. C) Stability of TF2D 5 and TF2D-5a in human blood plasma. Human K3EDTA blood plasma was obtained from BioTrend. D) Stability of TF2D-5 and TF2D-5a in human liver microsomes. Human liver microsomes consisted of 6 mg/ml protein (containing cytochrome P450 (CYP) enzymes), 75 mM sucrose, 1.3 mM NADPH, 3.3 mM D-glucose-6-phosphate, 0.2 u/ml D-glucose-6-phosphate dehydrogenase, 3.3 mM magnesium chloride and 100 mM potassium phosphate pH 7.4.

For another series, the target named is T1, tau in full-length (Homo sapiens, UniProt P10636).
T1 construct: MST measurement of TF2D-5, TF2D-5a and CP1 with tau in full-length
T1 sequence (P10636 1-441 isoform P10636-8): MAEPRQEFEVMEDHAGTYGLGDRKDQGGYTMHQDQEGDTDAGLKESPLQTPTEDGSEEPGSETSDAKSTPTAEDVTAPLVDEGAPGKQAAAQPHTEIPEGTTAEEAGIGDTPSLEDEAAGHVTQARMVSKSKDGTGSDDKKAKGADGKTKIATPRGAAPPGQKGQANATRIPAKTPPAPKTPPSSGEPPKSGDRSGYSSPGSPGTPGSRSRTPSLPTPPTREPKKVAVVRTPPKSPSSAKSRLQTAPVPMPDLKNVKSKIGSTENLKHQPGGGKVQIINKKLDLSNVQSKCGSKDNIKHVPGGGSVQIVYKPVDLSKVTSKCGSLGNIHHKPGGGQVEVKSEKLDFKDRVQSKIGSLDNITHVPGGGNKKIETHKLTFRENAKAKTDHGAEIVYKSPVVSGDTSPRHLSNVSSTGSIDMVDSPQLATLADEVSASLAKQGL
Put plainly: MST measurement of CF633-labelled peptides with tau in full-length. The class given is binding. Particulars: read-out: KD (MST, Boltzmann fit). The procedure:
MST measurement of TF2D-5, TF2D-5a and CP1 with tau in full-length. A) Boltzmann fit of TF2D-5 MST measurements with tau in full-length. TF2D-5 was labelled with CF633. The concentration of TF2D-5 was 500 nM, while the concentration of tau in full-length was between 2.5 μM and 0.2 pM. The measurement was performed in 1×PBS pH 7.4 with 150 mM NaCl. […] B) Boltzmann fit of TF2D-5a MST measurements with tau in full length. TF2D-5a was labelled with CF633. The concentration of TF2D-5a was 62.5 nM, while the concentration of tau in full-length varied between 300 nM and 0.5 nM. The measurement was performed in 0.1 M sodium phosphate buffer pH 7.4 with 75 mM sodium sulphate and 0.05% Tween 20. […] C) Average of the CP1-MST measurements with tau in full length. CP1 consists of the same amino acids as TF2D-5, but with a different distribution of the amino acids. CP1 was labelled with CF633. The concentration of CP1 was 62.5 nM, while the concentration of tau in full-length varied between […] and 0.2 pM. The measurement was performed in 0.1 M sodium phosphate buffer pH 7.4 with 75 mM sodium sulphate and 0.05% Tween 20. […] D) Calculated KDs of the individual peptides to tau in full-length at a glance. All experiments were repeated four times and the average of all measurements was calculated, which in turn was used to calculate the fits (Boltzmann).

The target in series [2] is T2, monomeric full-length tau 441 (Homo sapiens, UniProt P10636).
T2 construct: SPR measurement of TF2D-5 and TF2D-5a with full-length tau 441
T2 sequence (P10636 1-441 isoform P10636-8): as above
Put plainly: SPR measurement of peptide binding to tau. As to conditions: for Kd: SPR T200 Biacore, peptide immobilised on CM5 chip, monomeric tau as analyte, TBS pH 7.4, 0.05% Tween 20, DTT, 1:1 model (FIG. 2b). The procedure: SPR measurements of TF2D-5 with the analyte tau. Seven concentrations of tau were prepared for the measurement, with the highest concentration at 100 nM and the lowest concentration at 1.56 nM. The running buffer contained TBS with 0.1% Tween. The Koff was determined to be approximately 6×10-5 s-1.
The tau concentration during the measurement varied from 3.125 nM to 25 nM. […] Tau was used at concentrations from 31.25 nM to 500 nM. SPR measurements of A and B were recorded on a T200 Biacore instrument, the respective peptide was immobilised on a CM5 chip from Cytiva, while monomeric tau served as the analyte. The tests were performed using TBS pH 7.4, 0.05% Tween […] DTT as running buffer. The fit calculation was performed using the internal evaluation software of the T200 Biacore. A 1:1 model was used for both fits.
A general note: Surface plasmon resonance follows binding to a sensor surface in real time, without labels.

In another series the target is tau (Homo sapiens, UniProt P10636). Put plainly: ThT assay of heparin-induced tau aggregation (with AFM analysis). The series is classed as biochemical. Particulars: 15 μM tau, 8 μM heparin, 20 μM ThT; for effect on tau aggregation (ThT analysis): 15 μM peptide, 37° C., PBS pH 7.4 (FIG. 1). The procedure:
The effects of TF2D-1 and TF2D-5 on tau aggregation are shown. The ThT assay was performed by incubation of 15 μM tau with 8 μM heparin, 20 μM THT and 15 μM of either of the two peptides TF2D-1 or TF2D-5 at 37° C. in PBS pH 7.4. The sample without addition of the peptide is shown in red. The samples in which TF2D-1 or TF2D-5 was present are shown in green (TF2D-1) and blue (TF2D-5).
Shown are the effects of TF2D-5 on tau aggregation. The ThT assay was performed by incubation of 15 μM tau with 8 μM heparin, 20 μM ThT, 10% DMSO and different concentrations of TF2D-5 at 37° C. pH 7.0. The images next to the graph show the respective AFM measurements of each sample taken after 5 days. […] The image marked with C corresponds to the blue ThT curve without dilution, where TF2D-5 was added after 24 hours. All AFM measurements were performed by drying 1 μl on a mica, followed by two wash steps with 100 μl water and measurement on JPK Nanowizard3 with intermittent contact air and an OMCL AC160TS as cantilever.

A further series concerns tauk18 (LM)-YFP cells. In words: Inhibition of tau aggregation in cells seeded with sonified tau fibrils. The series is classed as cell-based. Particulars: three-day treatment. The procedure: A) TF2D-5a and the D-peptide CP-1, as negative control, were tested for their ability to inhibit the tau aggregation in tauk18 (LM)-YFP cells. The scale bar corresponds to 50 μm and applies to b-d. The significance was calculated using a one-way ANOVA followed by Dunnett's test for multiple comparisons. Three asterisks represent a p-value of less than 0.001 and four asterisks a p-value of less than 0.0001.

tau, sequence (P10636 1-441 isoform P10636-8): as above

On to `CC[C@@H](C)[C@@H](NC(=O)[C@@H](Cc1c[nH]cn1)NC(=O)CNC(=O)CNC(=O)[C@H]1CCCN1C(=O)[C@H](NC(=O)[C@@H](CCCCN)NC(=O)[C@@H](Cc1ccccc1)NC(=O)[C@@H](CC(C)C)NC(=O)[C@H](NC(=O)[C@@H](CCC(N)=O)NC(=O)[C@@H](Cc1ccc(O)cc1)NC(=O)CNC(=O)CNC(=O)[C@H](N)CC(=O)O)[C@H](C)CC)[C@H](C)CC)C(=O)N[C@H](Cc1c[nH]cn1)C(N)=O` [TF2D-5, dggyqilfkipgghih] (H-[dD]GG[dY][dQ][dI][dL][dF][dK][dI][dP]GG[dH][dI][dH]-NH2), for which, in series [1], the “stability in different body fluids” value is “very stable”. In addition, the Kd came out at 0.308 nM on tau in full-length (500 nM labelled peptide, tau 2.5 μM to 0.2 pM, 1×PBS pH 7.4 with 150 mM NaCl (FIG. 4A)) and 1.3 nM in series [2]. This compound also registered a koff in series [2] (SPR, analyte tau 1.56-100 nM, running buffer TBS with 0.1% Tween (FIG. 2a)) of about 6e-05 s⁻¹. Moreover, the “effect on tau aggregation (ThT analysis)” value on tau was “inhibit tau aggregation”. Besides, the “effect on tau aggregation (ThT and AFM analysis)” value at tau (10% DMSO, different concentrations of TF2D-5, 37° C., pH 7.0, AFM after 5 days (FIG. 3)) is “inhibits tau aggregation”.

On to `CC[C@@H](C)[C@@H](NC(=O)[C@@H](Cc1c[nH]cn1)NC(=O)CNC(=O)CNC(=O)[C@H]1CCCN1C(=O)[C@H](NC(=O)[C@@H](CCCCN)NC(=O)[C@@H](Cc1ccccc1)NC(=O)[C@@H](CC(C)C)NC(=O)[C@H](NC(=O)[C@@H](CCC(N)=O)NC(=O)[C@@H](Cc1ccc(O)cc1)NC(=O)CNC(=O)CNC(=O)[C@H](N)CC(=O)O)[C@H](C)CC)[C@H](C)CC)C(=O)N[C@H](Cc1c[nH]cn1)C(=O)N[C@H](CCCNC(=N)N)C(=O)N[C@H](CCCNC(=N)N)C(=O)N[C@H](CCCNC(=N)N)C(=O)N[C@H](CCCNC(=N)N)C(=O)N[C@H](CCCNC(=N)N)C(N)=O` [TF2D-5a, dggyqilfkipgghihrrrrr] (H-[dD]GG[dY][dQ][dI][dL][dF][dK][dI][dP]GG[dH][dI][dH][dR][dR][dR][dR][dR]-NH2), for which the “effect on number of cells with tau aggregates” value in the series with tauk18 (LM)-YFP cells (cells seeded with sonified tau fibrils (FIG. 5)) is “concentration-dependent reduction in the number of cells with tau aggregates”. In addition, in the series on tauk18 (LM)-YFP cells (further reduced at 25 μM and 50 μM, one-way ANOVA, Dunnett's test), the “concentration at which reduction in number of cells with tau aggregates was significant” value amounted to 12.5 UM. Besides, the “stability in different body fluids” value in series [1] is given as “very stable”. Moreover, the Kd at tau in full-length (62.5 nM labelled peptide, tau 300 nM to 0.5 nM, 0.1 M sodium phosphate buffer pH 7.4, 75 mM sodium sulphate, 0.05% Tween 20 (FIG. 4B)) was 11.7 nM; in series [2] it was 6.1 nM.

For the compound “Nemylwhwqypqhlrvg (H-[dN][dE][dM][dY][dL][dW][dH][dW][dQ][dY][dP][dQ][dH][dL][dR][dV]G-NH2; SMILES CSCC[C@@H](NC(=O)[C@@H](CCC(=O)O)NC(=O)[C@H](N)CC(N)=O)C(=O)N[C@H](Cc1ccc(O)cc1)C(=O)N[C@H](CC(C)C)C(=O)N[C@H](Cc1c[nH]c2ccccc12)C(=O)N[C@H](Cc1c[nH]cn1)C(=O)N[C@H](Cc1c[nH]c2ccccc12)C(=O)N[C@H](CCC(N)=O)C(=O)N[C@H](Cc1ccc(O)cc1)C(=O)N1CCC[C@@H]1C(=O)N[C@H](CCC(N)=O)C(=O)N[C@H](Cc1c[nH]cn1)C(=O)N[C@H](CC(C)C)C(=O)N[C@H](CCCNC(=N)N)C(=O)N[C@@H](C(=O)NCC(N)=O)C(C)C) [TF2D-1]”, the “effect on tau aggregation (ThT analysis)” value with tau is reported as “inhibit tau aggregation”.

A word on the Kd: it is a measure of binding affinity in units of concentration. The koff is a measure of how fast the partners let go of each other. Low values mean a long-lived complex, high ones a short-lived complex.
